From ChEMBL document CHEMBL4680197, “Further exploration of DVD-445 as a lead thioredoxin reductase (TrxR) inhibitor for cancer therapy: Optimization of potency and evaluation of anticancer potential” (Eur J Med Chem, 2020)
pIC50: −log10 of the molar value. Active and inactive are the calls of the source. The calls are words filed in the database; no cut-off is given here.

Tests used:
[1] = Cytotoxicity against human U87-TxR cells assessed as reduction in cell viability incubated for 72 hrs by MTT assay; type: functional, cell-based
[2] = molecular target: T1, ATP-dependent translocase ABCB1 (Homo sapiens, UniProt P08183); experiment: Inhibition of P-gp in human U87-TxR cells assessed as increase in Rho123 accumulation measured after 30 mins by flow cytometry; type: cell-based; details: 0.5 h
U-87 MG = experiment: Cytotoxicity against human U87 cells assessed as reduction in cell viability incubated for 72 hrs by MTT assay; type: functional, cell-based, U-87MG ATCC
MRC5 = experiment: Cytotoxicity against human MRC5 cells assessed as reduction in cell viability incubated for 72 hrs by MTT assay; type: cell-based; details: MRC5, 72 h
[3] = molecular target: T2, Thioredoxin reductase 1, cytoplasmic (Homo sapiens) (UniProt Q16881); experiment: Inhibition of TrxR1 in human U87-TxR cells assessed as increase in RONS level at 10 uM measured after 24 hrs by dihydrorhodamine 123 dye based flow cytometry; type: cell-based
T2 sequence (whole entry): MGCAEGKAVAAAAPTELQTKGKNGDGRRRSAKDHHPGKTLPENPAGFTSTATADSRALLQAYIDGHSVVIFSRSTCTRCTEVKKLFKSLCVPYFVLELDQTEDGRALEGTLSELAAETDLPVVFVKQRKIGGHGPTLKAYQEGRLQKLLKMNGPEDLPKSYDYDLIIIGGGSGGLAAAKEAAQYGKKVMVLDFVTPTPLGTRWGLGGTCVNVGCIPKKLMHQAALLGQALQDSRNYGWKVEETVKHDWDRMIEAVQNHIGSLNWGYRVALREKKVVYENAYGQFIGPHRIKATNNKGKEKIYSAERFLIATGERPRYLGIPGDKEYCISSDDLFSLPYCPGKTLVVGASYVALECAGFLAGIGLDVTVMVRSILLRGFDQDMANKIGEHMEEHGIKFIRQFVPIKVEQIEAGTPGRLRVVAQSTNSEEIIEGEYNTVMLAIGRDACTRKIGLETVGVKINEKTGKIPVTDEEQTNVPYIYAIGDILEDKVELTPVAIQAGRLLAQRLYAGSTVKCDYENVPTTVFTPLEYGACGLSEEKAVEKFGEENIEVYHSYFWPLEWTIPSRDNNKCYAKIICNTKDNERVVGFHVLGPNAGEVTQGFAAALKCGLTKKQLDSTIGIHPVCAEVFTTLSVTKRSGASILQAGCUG

[4] = Selectivity index, ratio of IC50 for human MRC5 cells to IC50 for human U87 cells; type: toxicity; details: MRC5 cells versus U87 cells, read-out: Ratio IC50
[5] = Selectivity index, ratio of IC50 for human MRC5 cells to IC50 for human U87-TxR cells; type: toxicity; details: MRC5 cells versus U87-TxR cells, read-out: Ratio IC50
[6] = molecular target: T2, Thioredoxin reductase 1, cytoplasmic (Homo sapiens); experiment: Inhibition of TrxR1 in human U87 cells assessed as increase in RONS level at 10 uM measured after 24 hrs by dihydrorhodamine 123 dye based flow cytometry; type: cell-based
[7] = molecular target: T1, ATP-dependent translocase ABCB1; experiment: Inhibition of P-gp in human U87-TxR cells assessed as increase in Rho123 accumulation at 2.5 uM measured after 72 hrs by flow cytometry; type: cell-based
[8] = molecular target: T3, Thioredoxin reductase 1, cytoplasmic (Rattus norvegicus, UniProt O89049); experiment: Inhibition of recombinant rat TrxR1 using DTNB as substrate preincubated for 15 mins followed by substrate addition and measured for 20 mins by colorimetry
T3 sequence (O89049 whole entry): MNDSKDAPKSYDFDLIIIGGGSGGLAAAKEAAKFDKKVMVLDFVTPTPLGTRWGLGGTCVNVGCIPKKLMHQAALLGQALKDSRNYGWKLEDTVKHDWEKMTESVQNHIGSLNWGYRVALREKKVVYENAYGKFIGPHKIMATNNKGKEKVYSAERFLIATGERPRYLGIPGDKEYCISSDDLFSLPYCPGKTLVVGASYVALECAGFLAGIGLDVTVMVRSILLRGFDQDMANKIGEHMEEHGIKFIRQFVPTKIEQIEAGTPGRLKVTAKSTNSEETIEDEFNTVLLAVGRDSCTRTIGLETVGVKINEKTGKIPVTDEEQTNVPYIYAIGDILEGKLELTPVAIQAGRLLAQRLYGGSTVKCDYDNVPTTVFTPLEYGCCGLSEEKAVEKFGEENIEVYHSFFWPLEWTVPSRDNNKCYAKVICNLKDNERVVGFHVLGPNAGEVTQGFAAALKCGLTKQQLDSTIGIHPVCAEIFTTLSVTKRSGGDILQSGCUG

SH-SY5Y = experiment: Inhibition of TrxR in human SH-SY5Y cell lysates at 5 uM using DTNB as substrate preincubated for 15 mins followed by substrate addition and measured for 20 mins by colorimetry relative to control; type: subcellular; details: time 35.0 min
[9] = molecular target: T1, ATP-dependent translocase ABCB1; experiment: Inhibition of P-gp in human U87-TxR cells assessed as increase in Rho123 accumulation at 5 uM measured after 30 mins by flow cytometry; type: cell-based; details: 0.5 h
[10] = molecular target: T1, ATP-dependent translocase ABCB1; experiment: Inhibition of P-gp in human U87-TxR cells assessed as increase in Rho123 accumulation at 50 nM measured after 30 mins by flow cytometry; type: cell-based; details: 0.5 h, 0.05 µM

T1 sequence (P08183 whole entry): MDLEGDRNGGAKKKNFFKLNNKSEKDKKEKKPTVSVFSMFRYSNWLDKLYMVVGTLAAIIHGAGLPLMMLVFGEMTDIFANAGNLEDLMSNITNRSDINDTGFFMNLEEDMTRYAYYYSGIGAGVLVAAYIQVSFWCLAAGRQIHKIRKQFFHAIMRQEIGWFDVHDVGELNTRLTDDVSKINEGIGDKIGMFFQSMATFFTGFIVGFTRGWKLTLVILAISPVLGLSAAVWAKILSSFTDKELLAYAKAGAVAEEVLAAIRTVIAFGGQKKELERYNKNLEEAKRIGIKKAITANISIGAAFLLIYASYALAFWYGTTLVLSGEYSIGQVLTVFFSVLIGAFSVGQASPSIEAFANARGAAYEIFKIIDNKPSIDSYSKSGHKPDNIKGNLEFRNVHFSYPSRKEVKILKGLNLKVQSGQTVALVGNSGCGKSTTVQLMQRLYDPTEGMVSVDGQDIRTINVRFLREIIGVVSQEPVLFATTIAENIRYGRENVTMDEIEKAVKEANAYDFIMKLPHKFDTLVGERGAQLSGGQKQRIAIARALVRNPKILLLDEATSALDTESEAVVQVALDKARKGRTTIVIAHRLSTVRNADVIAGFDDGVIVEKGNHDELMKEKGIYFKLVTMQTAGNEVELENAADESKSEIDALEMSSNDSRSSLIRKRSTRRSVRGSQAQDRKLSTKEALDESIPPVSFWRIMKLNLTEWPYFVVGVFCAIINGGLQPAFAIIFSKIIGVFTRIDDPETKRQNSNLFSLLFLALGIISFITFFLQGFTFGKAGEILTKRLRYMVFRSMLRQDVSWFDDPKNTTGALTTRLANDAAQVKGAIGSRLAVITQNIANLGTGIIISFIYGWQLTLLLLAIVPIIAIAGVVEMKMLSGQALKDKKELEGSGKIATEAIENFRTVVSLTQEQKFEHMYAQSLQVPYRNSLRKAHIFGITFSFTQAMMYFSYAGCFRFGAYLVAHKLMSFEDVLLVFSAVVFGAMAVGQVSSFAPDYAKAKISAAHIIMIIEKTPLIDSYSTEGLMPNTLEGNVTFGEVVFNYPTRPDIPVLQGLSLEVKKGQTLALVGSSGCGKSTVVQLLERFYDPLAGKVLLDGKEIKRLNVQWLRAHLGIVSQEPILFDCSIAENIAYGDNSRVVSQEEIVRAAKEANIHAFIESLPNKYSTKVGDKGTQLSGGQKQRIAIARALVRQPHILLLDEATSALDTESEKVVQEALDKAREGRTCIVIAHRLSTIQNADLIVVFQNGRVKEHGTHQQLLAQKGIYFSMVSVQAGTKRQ

Row | Compound | inhibition (INH) [2] | inhibition [3] | inhibition [6] | inhibition (INH) [7] | pIC50 [8] | inhibition (SH-SY5Y) [%] | inhibition (INH) [9] | inhibition (INH) [10] | pIC50 [1] | pIC50 (U-87 MG) | pIC50 (MRC5) | selectivity ratio [4] | selectivity ratio [5]
1 | CN(CCOC(=O)/C=C/C(=O)c1ccc(F)cc1)C(C(=O)NC(C)(C)C)c1ccc(F)cc1 (configuration not stated) | Dose-dependent effect | Active |  |  |  |  |  |  | 5.07 | 5.05 | 4.93 | 1.4 | 1.4
2 | CCN(CCOC(=O)/C=C/C(=O)c1ccc(F)cc1)C(C(=O)NC(C)(C)C)c1cccc(C)c1 (configuration not stated) |  | Active | Active | Not Active | 5.47 | 50.2 | Active |  | 5.22 | 5.15 | 4.89 | 2 | 2
3 | CN(CCOC(=O)/C=C/C(=O)c1ccc(F)cc1)C(C(=O)NC(C)(C)C)c1ccccc1F (configuration not stated) |  | Active |  | Not Active | 5.30 | 64 | Active |  | 5.21 | 5.08 | 4.83 | 2 | 2
4 | Cc1ccc(C(=O)/C=C/C(=O)OCCN(C)C(C(=O)NC2CCCCC2)c2ccc(F)cc2)cc1 (configuration not stated) |  | Active | Active | Not Active | 4.43 | 68.8 | Active |  | 4.93 | 5.23 | 4.85 | 1.6 | 1.6
5 | COc1cc2c(cc1OC)CN(CCc1ccc(NC(=O)c3cc(OC)c(OC)cc3NC(=O)c3cnc4ccccc4c3)cc1)CC2 [TARIQUIDAR] |  |  |  |  |  |  |  | Active |  |  |  |  | 

Now from value to compound, other results behind:

Row | inhibition (INH) [2] | inhibition [3] | inhibition [6] | inhibition (INH) [7] | pIC50 [8] | inhibition (SH-SY5Y) [%] | inhibition (INH) [9] | inhibition (INH) [10] | Compound | pIC50 [1] | pIC50 (U-87 MG) | pIC50 (MRC5) | selectivity ratio [4] | selectivity ratio [5]
6 |  | Active | Active | Not Active | 6.23 | 82.7 | Active |  | Cc1ccc(C(C(=O)NC(C)(C)C)N(C)CCOC(=O)/C=C/C(=O)c2ccc(F)cc2)cc1 (configuration not stated) | 5.21 | 5.16 | 4.85 | 2.2 | 2.2
7 |  |  | Active | Not Active | 6.72 | 84.6 | Active |  | CN(CCOC(=O)/C=C/C(=O)c1ccc(F)cc1)C(C(=O)NC(C)(C)C)c1ccc(F)c(F)c1 (configuration not stated) | 5.11 | 5.15 | 4.75 | 2.4 | 2.4
8 |  | Active | Active | Not Active | 5.82 | 33 | Active |  | Cc1cccc(C(C(=O)NC(C)(C)C)N(C)CCOC(=O)/C=C/C(=O)c2ccc(F)cc2)c1 (configuration not stated) | 5.08 | 5.10 | 4.87 | 1.6 | 1.6
9 |  | Active |  | Active | 5.49 | 53 | Active |  | Cc1cccc(C(C(=O)NC2CCCCC2)N(C)CCOC(=O)/C=C/C(=O)c2ccc(F)cc2)c1 (configuration not stated) | 5.11 | 5.15 | 4.85 | 1.9 | 1.9
